Holding throughout (format): cell-based, human
In one test the test system is HTT mRNA. Put plainly: Splicing RT-qPCR gene panel, HTT canonical junction (CJ) mRNA. The following applies: Homo sapiens, Tables 4A/4B, read-out: HTT (IC50, decrease in CJ mRNA, gene panel). The essentials: (§1)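 Read-out: RT-qPCR of the canonical exon-exon junction transcript, ΔCt vs housekeeping gene, normalized to DMSO, RQ = 2^(−ΔΔCt), converted to percentage response. Cells, A673 or K562, were dosed 24 h at 37 °C across 11 3-fold dilutions from 10 uM.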
A general note: Quantitative PCR measures a nucleic acid by following its amplification.

A further test concerns SMN2 mRNA. Put plainly: Splicing RT-qPCR gene panel, SMN2 canonical junction (CJ) mRNA. The following applies: Homo sapiens, Tables 4A/4B, read-out: SMN2 (IC50, decrease in CJ mRNA, gene panel). In outline: as §1
For the next test, the system named is Target C mRNA. Put plainly: Splicing RT-qPCR gene panel, Target C canonical junction (CJ) mRNA. The following applies: Homo sapiens, Tables 4A/4B, read-out: Target C (IC50, decrease in CJ mRNA, gene panel). The essentials: as §1

Molecules are shown by their SMILES.

`Cc1cn2nc(NC(=O)c3ccc(C4CCNCC4)c4cc(C)oc34)cc(C)c2n1` [Compound 118]: the IC50 (in general, the concentration that inhibits the measured activity by half) is 1000 to 10000 nM in the test with HTT mRNA, 100 to 1000 nM in the test with SMN2 mRNA and above 10000 nM in the test with Target C mRNA.
Taken in the same sequence, the figures for `Cc1cn2nc(NC(=O)c3ccc(C4CCNCC4)c4ccoc34)cc(C)c2n1` [Compound 119] were 1000 to 10000 nM, 100 to 1000 nM and above 10000 nM.
The like results for `Cc1cn2cc(NC(=O)c3ccc(N4CCNCC4)c4nc(C)oc34)cc(F)c2n1` [Compound 140] were, in that order, 1000 to 10000 nM, 100 to 1000 nM and 1000 to 10000 nM.
The like results for `Cc1cn2cc(NC(=O)c3ccc(N4CCNCC4)c4oc(C)nc34)cc(F)c2n1` [Compound 141] were, in that order, below 100 nM, below 100 nM and 100 to 1000 nM.
For `Cc1cn2cc(NC(=O)c3ccc(N4CCNCC4)c4cc(C)oc34)cc(F)c2n1` [Compound 142], the 50% inhibitory concentration (IC50) in the test on HTT mRNA is 1000 to 10000 nM; in the test with SMN2 mRNA it was below 100 nM; with Target C mRNA, 100 to 1000 nM.
Taken in the same sequence, the figures for `Cc1cn2cc(NC(=O)c3ccc(N4CCNCC4)c4cn(C)nc34)cc(F)c2n1` [Compound 143, N-{8-fluoro-2-methylimidazo[1,2-a]pyridin-6-yl}-2-methyl-4-(piperazin-1-yl) indazole-7-carboxamide] were below 100 nM, below 100 nM and 100 to 1000 nM.
Taken in the same sequence, the figures for `Cc1cn2cc(NC(=O)c3ccc(C4CCNCC4)c4cc(C)oc34)cc(F)c2n1` [Compound 145] were 1000 to 10000 nM, below 100 nM and 100 to 1000 nM.
As to `Cc1cn2nc(NC(=O)c3ccc(N4CCNCC4)c4cc(C)oc34)cc(C)c2n1` [Compound 148], the results for the IC50 in the test on HTT mRNA, in the test with SMN2 mRNA and in the test with Target C mRNA were 1000 to 10000 nM, 100 to 1000 nM and 1000 to 10000 nM, respectively.
As for `Cc1cn2cc(NC(=O)c3ccc(C4CCNCC4)c4ccoc34)cc(F)c2n1` [Compound 149], the figures for the IC50 in the test with HTT mRNA, with SMN2 mRNA and in the test on Target C mRNA were 1000 to 10000 nM, below 100 nM and above 10000 nM, respectively.
The like results for `Cc1cn2cc(NC(=O)c3ccc(N4CCN(C)CC4)c4cc(C)oc34)cc(F)c2n1` [Compound 189] were, in that order, 1000 to 10000 nM, below 100 nM and 1000 to 10000 nM.
The like results for `Cc1cn2cc(NC(=O)c3ccc(N4CCNC(C)C4)c4cc(C)oc34)cc(F)c2n1` (stereo not drawn) [Compound 190] were, in that order, 100 to 1000 nM, 100 to 1000 nM and 1000 to 10000 nM.
In the case of `Cc1cn2cc(NC(=O)c3ccc(N4CCN(C)C(C)C4)c4cc(C)oc34)cc(F)c2n1` (stereo not drawn) [Compound 191], the IC50 in the test with HTT mRNA was 100 to 1000 nM; in the test on SMN2 mRNA, below 100 nM; in the test with Target C mRNA, 1000 to 10000 nM.
The like results for `CCC1CN(c2ccc(C(=O)Nc3cc(F)c4nc(C)cn4c3)c3oc(C)cc23)CCN1` (stereo not drawn) [Compound 192] were, in that order, 1000 to 10000 nM, below 100 nM and 1000 to 10000 nM.
Taken in the same sequence, the figures for `Cc1cn2cc(NC(=O)c3ccc(N4CCNC(C)(C)C4)c4cc(C)oc34)cc(F)c2n1` [Compound 193] were 1000 to 10000 nM, below 100 nM and above 10000 nM.
Taken in the same sequence, the figures for `Cc1cn2cc(NC(=O)c3ccc(N4CCNC5(CC5)C4)c4cc(C)oc34)cc(F)c2n1` [Compound 194] were 1000 to 10000 nM, below 100 nM and above 10000 nM.
Turning to `Cc1cn2cc(NC(=O)c3ccc(N4CC(C)(C)NC(C)(C)C4)c4cc(C)oc34)cc(F)c2n1` [Compound 195], the 50% inhibitory concentration (IC50) in the test on HTT mRNA was above 10000 nM; in the test with SMN2 mRNA, below 100 nM; in the test with Target C mRNA, above 10000 nM.
For the compound `CCNC1CCN(c2ccc(C(=O)Nc3cc(F)c4nc(C)cn4c3)c3oc(C)cc23)CC1` [Compound 196], the IC50 in the test with HTT mRNA is 1000 to 10000 nM; in the test on SMN2 mRNA it was below 100 nM; in the test on Target C mRNA it was 1000 to 10000 nM.
In the case of `Cc1cn2cc(NC(=O)c3ccc(N4CCC(NC(C)(C)C)CC4)c4cc(C)oc34)cc(F)c2n1` [Compound 197], the 50% inhibitory concentration (IC50) with HTT mRNA is above 10000 nM; with SMN2 mRNA it was 100 to 1000 nM; in the test on Target C mRNA, above 10000 nM.
As to `CC1=CC2C(N3CCC(N(C)C)CC3)=CC=C(C(=O)Nc3cc(F)c4nc(C)cn4c3)C2O1` (stereo not drawn) [Compound 198], the half-maximal inhibitory concentration (IC50) was 1000 to 10000 nM in the test on HTT mRNA, below 100 nM in the test with SMN2 mRNA and 1000 to 10000 nM in the test on Target C mRNA.
Take `Cc1cn2cc(NC(=O)c3ccc(N4CCN5CCCC5C4)c4cc(C)oc34)cc(F)c2n1` (stereo not drawn) [Compound 199]: the values for the IC50 with HTT mRNA, with SMN2 mRNA and in the test on Target C mRNA were 100 to 1000 nM, below 100 nM and 1000 to 10000 nM, respectively.
The like results for `Cc1cn2cc(NC(=O)c3ccc(C4CCNCC4)c4cn(C)nc34)cc(F)c2n1` [Compound 208] were, in that order, 100 to 1000 nM, below 100 nM and 100 to 1000 nM.
As for `Cc1cc2c(N3CCNCC3)ccc(C(=O)Nc3cc(F)c4cn(C)nc4c3)c2o1` [Compound 217], the values for the half-maximal inhibitory concentration (IC50) with HTT mRNA, with SMN2 mRNA and in the test with Target C mRNA were above 10000 nM, 1000 to 10000 nM and above 10000 nM, respectively.

The values above are taken from US20250154169A1, “COMPOUNDS AND METHODS FOR MODULATING SPLICING” (REMIX THERAPEUTICS INC., priority 2021, published 2025).
